# In ChEMBL document CHEMBL1201862, “PubChem BioAssay data set” (2004):
# Active and inactive are the calls of the source.
# How the values were obtained:
# [1] = target: DNA topoisomerase (Yersinia pestis, UniProt A0A2S9PM60); assay: Y. pestis Topo-I inhibitors, cleavage product readout, dose response, biochemical, cherry-pick (AID 588525)
# [2] = cells; assay type: functional, cell-based
# [3] = target: Mu-type opioid receptor (Homo sapiens, UniProt P35372); assay: (§1) Counterscreen for agonists of heterodimerization of the mu 1 (OPRM1) and delta 1 (OPRD1) opioid receptors: Luminescence-based cell-based high throughput dose response assay to identify agonists of OPRM1 homodimerization.; assay type: functional
# [4] = target: Delta-type opioid receptor (Homo sapiens, UniProt P41143); assay: as §1, with “of OPRD1” for “of OPRM1”, “homodimerization. [Related pubchem assays (depositor defined):AID504326, AID504355, AID504692, AID504904, AID504905]” for “homodimerization.”; assay type: functional
# [5] = target: T1, Short transient receptor potential channel 4 (Mus musculus, UniProt Q9QUQ5); assay: mouse TRPC4 channel activators, dose response, cell-based, HEK293 TRPC4/mu-opioid, Fluo-4 calcium (AID 434937); assay type: functional
# T1 sequence (Q9QUQ5 whole entry): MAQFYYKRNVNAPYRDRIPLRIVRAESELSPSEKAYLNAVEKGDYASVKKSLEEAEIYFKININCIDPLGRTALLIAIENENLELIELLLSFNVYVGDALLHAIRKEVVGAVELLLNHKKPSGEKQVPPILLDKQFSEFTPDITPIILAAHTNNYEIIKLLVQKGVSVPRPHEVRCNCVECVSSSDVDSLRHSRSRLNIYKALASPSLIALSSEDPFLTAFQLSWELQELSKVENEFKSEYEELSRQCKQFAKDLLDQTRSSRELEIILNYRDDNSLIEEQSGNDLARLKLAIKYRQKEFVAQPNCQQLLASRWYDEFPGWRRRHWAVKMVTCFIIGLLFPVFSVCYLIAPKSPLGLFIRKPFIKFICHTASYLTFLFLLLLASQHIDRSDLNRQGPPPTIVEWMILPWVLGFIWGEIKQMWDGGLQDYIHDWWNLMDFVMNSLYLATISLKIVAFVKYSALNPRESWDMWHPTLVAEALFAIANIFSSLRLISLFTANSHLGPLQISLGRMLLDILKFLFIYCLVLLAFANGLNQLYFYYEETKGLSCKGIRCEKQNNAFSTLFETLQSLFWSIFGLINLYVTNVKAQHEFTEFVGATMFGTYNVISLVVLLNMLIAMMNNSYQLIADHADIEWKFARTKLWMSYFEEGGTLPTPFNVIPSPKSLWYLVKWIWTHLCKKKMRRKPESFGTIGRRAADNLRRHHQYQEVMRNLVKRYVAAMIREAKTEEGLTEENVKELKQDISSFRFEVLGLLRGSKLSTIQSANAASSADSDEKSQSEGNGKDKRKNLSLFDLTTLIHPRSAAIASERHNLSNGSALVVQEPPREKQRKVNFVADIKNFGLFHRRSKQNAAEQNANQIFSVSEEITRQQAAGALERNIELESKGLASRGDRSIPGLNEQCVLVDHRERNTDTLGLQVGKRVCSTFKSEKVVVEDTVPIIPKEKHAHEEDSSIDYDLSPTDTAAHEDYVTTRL
# [6] = target: 5-hydroxytryptamine receptor 5A (Homo sapiens, UniProt P47898); assay: Counterscreen for agonists of OPRM1-OPRD1 heterodimerization: luminescence-based cell-based high throughput dose response assay to identify agonists of 5-hydroxytryptamine (serotonin) 5A receptor (HTR5A). [Related pubchem assays (depositor defined):AID504326, AID504355, AID504692, AID504904, AID504905]; assay type: functional
# [7] = cells; assay type: functional, cell-based; remark: listed apart in the source
# [8] = tested on: HeLa; assay: HeLa cell cytotoxicity, dose response, cytotoxicity control for MITF activator project, CellTiter-Glo luminescence, cherry-pick samples (AID 540259); assay type: functional, cell-based; conditions: Homo sapiens
# [9] = target: Heat shock protein HSP 90-alpha (Homo sapiens, UniProt P07900); assay type: functional, organism-based
# [10] = target: T2, Endoribonuclease toxin MazF (Escherichia coli K-12, UniProt P0AE70); assay: fluorescent RNA oligo signal without MazF, dose response, counter-screen for MazEF activator project, biochemical, fluorescence, single-stranded RNase substrate (AID 588502); assay type: functional
# T2 sequence (P0AE70 whole entry): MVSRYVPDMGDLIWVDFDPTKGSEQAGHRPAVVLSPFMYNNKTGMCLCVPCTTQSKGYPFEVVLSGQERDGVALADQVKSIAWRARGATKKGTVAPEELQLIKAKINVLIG
# [11] = target: T2, Endoribonuclease toxin MazF; assay: MazF toxin RNase activators, dose response, biochemical, fluorescence, single-stranded RNA substrate, uHTS hits (AID 588481); assay type: functional
# [12] = tested on: Escherichia coli; assay: microbe, parasite or virus in culture
# [13] = target: T3, Low molecular weight phosphotyrosine protein phosphatase (Homo sapiens, UniProt P24666); assay type: functional; conditions: read-out: IC50_Mean;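 further: Dose-response confirmation assay measuring inhibition of LMPTP enzyme activity by fluorescence intensity read-out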
# T3 sequence (P24666 whole entry): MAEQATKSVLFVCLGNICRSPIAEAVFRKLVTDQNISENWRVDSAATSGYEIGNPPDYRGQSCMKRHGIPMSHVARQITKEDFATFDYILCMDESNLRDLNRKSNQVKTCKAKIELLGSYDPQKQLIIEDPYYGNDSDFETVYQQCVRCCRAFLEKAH
# [14] = target: NS3 (Hepatitis C virus, UniProt A3EZJ3); assay: PubChem AID 2173; parameters: species or system Hepacivirus hominis
# [15] = ZM109 Env clade C HIV-1 fusion inhibitors, dose response, HeLa effector, CEM target cells, luciferase, cherry-pick (AID 652058); assay type: functional, cell-based
# [16] = inhibitors of clade B AD8 Env fusion, dose response, cell-based, cherry-pick (AID 652062); assay type: functional;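 further: luciferase signal from cell-cell fusion driven by HIV-1 clade B AD8 Env; potency is for inhibitors of fusion seen as a drop in luminescence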
# [17] = inhibitors of HIV Env-driven cell fusion, dose response, cherry-pick (AID 652057); assay type: functional, cell-based
# [18] = CEM21 lymphoblast cell cytotoxicity, dose response, cytotoxicity control for viral fusion inhibitor project, CellTiter-Glo luminescence, cherry-picked (AID 652042); assay type: functional, cell-based;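 further: potency for signal decrease meaning cytotoxicity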
# [19] = off-target signal loss in HeLa-CEM21 co-culture – HeLa F-luc CTL cells, cherry-picked, counter-screen for HIV-1 Env fusion inhibitor project, dose response (AID 652040); assay type: functional, cell-based;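 further: potency for signal decrease marking cytotoxic or nonspecific inhibition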
# [20] = target: Beta Lactamase (Pseudomonas aeruginosa, UniProt Q932Y6); assay: beta-lactamase reporter inhibitor potency, dose response, artefact control for TLR9-MyD88 binding inhibitor project, BLA reporter cells, FRET fluorescence (AID 588341); assay type: cell-based;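 further: cell based assay in CHO-K1 cells stably expressing beta-lactamase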
# [21] = tested on: CHO; assay: cytotoxicity in TLR9-MyD88 CHO cells, dose response, cytotoxicity control for TLR9-MyD88 binding inhibitor project, cell-based, luminescence (AID 588339); assay type: functional, hamster; conditions: Cricetulus griseus;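 further: CHO cells stably coexpressing TLR9 and MyD88 fusions from primary screen; compound exposure lasted 48 hours before viability readout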
# [22] = tested on: Escherichia coli; assay: microbe, parasite or virus in culture; remark: listed apart in the source
# [23] = tested on: Streptococcus sp. 'group A'; assay: growth inhibition of control SK(-) GAS strain, dose response, counter-screen for streptokinase expression inhibitor project, luminescence, kanamycin, BacTiterGlo, confirmation (AID 1900); assay type: functional, organism-based
# [24] = tested on: Streptococcus; assay: Group A Streptococcus viability loss, dose response, counter-screen for streptokinase expression inhibitor project, luminescence, BacTiterGlo (AID 1915); assay type: functional, organism-based;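 further: potency for reduction of bacterial viability or growth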
# [25] = microbe, parasite or virus in culture; assay type: functional; conditions: Mycobacterium tuberculosis
# [26] = target: Beta-galactosidase (Escherichia coli, UniProt Q8VNN2); assay: PubChem AID 485352; assay type: functional
# [27] = target: Type-1 angiotensin II receptor (Homo sapiens, UniProt P30556); assay: AT1 receptor antagonists, dose response, selectivity assay for APJ receptor antagonist project, cell-based, uHTS hits (AID 463214); assay type: functional;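 further: antagonist potency against angiotensin II stimulated AT1 response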
# [28] = target: CAAX prenyl protease 2 (Homo sapiens, UniProt Q9Y256); assay: human Rce1 protease inhibitors, dose response, biochemical, yeast membranes, quenched-peptide fluorescence, cherry-pick (AID 588849)
# [29] = target: Trypsin (Sus scrofa, UniProt P00761); assay: porcine trypsin inhibitors, dose response, selectivity assay for Rce1 protease inhibitor project, biochemical, quenched peptide fluorescence, cherry-pick (AID 488789)
# Sequence of Trypsin (P00761 whole entry): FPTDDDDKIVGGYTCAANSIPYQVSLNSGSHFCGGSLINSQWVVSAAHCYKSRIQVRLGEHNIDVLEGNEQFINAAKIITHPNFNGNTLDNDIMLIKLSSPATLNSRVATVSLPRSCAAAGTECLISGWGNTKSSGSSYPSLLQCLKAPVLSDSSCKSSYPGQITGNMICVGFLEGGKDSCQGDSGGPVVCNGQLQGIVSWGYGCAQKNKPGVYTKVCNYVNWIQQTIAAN
# Sequence of DNA topoisomerase (A0A2S9PM60 whole entry): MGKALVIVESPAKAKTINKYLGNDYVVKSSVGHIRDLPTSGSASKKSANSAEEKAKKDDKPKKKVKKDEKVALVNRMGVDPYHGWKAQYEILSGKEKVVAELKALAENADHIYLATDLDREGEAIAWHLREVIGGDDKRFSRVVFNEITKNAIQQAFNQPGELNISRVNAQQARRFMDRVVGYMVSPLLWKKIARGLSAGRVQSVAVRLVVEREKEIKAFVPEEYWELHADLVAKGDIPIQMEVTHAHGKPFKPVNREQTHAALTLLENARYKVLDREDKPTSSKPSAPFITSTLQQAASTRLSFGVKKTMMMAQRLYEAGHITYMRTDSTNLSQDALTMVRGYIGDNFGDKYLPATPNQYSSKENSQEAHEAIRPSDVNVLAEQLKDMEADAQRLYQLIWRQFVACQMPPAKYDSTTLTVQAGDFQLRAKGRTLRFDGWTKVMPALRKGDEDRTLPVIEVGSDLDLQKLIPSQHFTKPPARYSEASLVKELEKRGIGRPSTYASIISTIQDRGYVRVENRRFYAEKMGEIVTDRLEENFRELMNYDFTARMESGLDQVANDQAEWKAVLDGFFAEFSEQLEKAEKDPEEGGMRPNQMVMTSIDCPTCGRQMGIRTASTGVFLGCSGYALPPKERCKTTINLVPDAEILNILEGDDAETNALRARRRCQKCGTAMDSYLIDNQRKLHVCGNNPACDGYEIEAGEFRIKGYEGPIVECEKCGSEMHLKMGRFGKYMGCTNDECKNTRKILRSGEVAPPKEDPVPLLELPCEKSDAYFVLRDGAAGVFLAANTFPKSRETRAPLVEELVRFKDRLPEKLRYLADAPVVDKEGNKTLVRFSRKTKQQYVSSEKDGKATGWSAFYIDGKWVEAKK
# Sequence of 5-hydroxytryptamine receptor 5A (P47898 whole entry): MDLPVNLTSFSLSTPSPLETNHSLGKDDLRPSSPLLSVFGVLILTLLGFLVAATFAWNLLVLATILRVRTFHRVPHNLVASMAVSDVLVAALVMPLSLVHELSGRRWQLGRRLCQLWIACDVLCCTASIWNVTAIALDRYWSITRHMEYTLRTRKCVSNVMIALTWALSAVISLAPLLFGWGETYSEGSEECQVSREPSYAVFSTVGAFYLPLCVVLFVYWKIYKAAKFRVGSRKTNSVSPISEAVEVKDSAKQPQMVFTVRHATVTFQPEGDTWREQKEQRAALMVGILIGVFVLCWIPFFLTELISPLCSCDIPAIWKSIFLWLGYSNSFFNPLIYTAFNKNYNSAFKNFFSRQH
# Sequence of Delta-type opioid receptor (P41143 whole entry): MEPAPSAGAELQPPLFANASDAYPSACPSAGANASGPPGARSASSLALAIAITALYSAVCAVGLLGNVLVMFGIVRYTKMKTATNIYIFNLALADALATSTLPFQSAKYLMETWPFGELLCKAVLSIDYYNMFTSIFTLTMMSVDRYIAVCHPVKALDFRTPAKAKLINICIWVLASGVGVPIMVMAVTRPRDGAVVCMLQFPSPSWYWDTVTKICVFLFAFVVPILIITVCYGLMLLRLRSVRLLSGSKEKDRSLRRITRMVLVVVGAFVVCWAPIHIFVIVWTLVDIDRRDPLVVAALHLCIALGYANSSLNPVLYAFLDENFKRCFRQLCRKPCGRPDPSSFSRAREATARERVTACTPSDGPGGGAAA
# Sequence of Mu-type opioid receptor (P35372 whole entry): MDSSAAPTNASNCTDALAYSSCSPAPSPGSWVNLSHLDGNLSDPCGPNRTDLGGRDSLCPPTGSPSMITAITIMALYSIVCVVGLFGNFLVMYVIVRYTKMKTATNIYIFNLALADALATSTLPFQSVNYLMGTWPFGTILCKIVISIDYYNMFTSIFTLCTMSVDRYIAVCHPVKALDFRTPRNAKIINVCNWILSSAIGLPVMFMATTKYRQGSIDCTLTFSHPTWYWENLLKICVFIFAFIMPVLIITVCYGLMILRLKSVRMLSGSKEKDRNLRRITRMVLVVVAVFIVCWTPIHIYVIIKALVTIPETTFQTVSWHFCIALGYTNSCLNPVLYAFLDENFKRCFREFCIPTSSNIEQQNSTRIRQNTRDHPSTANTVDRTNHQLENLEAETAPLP
# Sequence of Beta-galactosidase (Q8VNN2 whole entry): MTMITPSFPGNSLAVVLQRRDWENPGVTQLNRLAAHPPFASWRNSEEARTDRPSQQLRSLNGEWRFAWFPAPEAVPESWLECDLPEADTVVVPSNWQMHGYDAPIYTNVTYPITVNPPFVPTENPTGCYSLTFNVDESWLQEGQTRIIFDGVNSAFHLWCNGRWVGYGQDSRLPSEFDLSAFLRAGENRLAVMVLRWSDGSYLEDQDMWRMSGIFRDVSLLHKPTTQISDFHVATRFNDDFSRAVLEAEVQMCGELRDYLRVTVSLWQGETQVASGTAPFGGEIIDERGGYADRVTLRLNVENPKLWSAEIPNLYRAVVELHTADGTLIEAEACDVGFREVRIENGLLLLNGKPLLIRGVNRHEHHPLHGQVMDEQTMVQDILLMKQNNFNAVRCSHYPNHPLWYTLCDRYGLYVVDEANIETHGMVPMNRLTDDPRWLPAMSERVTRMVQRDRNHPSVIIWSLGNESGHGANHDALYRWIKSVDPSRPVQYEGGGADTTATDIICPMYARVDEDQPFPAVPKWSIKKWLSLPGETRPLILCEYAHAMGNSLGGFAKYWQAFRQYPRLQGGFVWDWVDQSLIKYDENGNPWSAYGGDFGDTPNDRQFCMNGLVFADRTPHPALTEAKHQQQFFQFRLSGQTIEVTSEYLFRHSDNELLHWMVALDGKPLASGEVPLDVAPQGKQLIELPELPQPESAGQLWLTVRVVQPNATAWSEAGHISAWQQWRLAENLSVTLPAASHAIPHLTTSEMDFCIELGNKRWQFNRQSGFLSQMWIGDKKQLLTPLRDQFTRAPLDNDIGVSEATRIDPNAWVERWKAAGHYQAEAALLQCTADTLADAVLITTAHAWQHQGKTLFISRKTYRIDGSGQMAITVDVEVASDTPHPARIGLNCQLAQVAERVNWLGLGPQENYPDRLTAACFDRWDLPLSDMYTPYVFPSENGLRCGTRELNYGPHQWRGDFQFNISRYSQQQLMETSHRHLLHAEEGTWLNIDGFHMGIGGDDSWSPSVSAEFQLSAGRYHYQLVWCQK
# Sequence of CAAX prenyl protease 2 (Q9Y256 whole entry): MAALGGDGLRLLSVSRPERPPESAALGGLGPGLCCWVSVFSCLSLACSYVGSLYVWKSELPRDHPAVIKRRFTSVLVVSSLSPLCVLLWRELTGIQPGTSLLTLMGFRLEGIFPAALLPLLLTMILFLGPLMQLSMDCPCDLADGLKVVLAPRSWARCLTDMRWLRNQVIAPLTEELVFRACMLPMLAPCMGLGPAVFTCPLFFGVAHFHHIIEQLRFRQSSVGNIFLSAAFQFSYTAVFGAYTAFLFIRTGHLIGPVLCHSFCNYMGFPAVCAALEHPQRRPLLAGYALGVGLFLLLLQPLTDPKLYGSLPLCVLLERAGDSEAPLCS
# Sequence of Type-1 angiotensin II receptor (P30556 whole entry): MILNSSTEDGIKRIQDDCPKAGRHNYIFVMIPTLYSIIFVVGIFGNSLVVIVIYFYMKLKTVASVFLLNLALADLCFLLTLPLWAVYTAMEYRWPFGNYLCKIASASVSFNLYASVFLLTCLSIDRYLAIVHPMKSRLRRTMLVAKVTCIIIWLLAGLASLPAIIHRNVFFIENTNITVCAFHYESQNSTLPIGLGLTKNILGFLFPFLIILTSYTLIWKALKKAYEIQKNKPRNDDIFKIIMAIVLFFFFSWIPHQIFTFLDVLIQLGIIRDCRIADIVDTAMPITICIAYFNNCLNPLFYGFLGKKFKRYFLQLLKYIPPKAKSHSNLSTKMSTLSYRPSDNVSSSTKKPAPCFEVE
# Sequence of Beta Lactamase (Q932Y6 whole entry, the tested form may be a part): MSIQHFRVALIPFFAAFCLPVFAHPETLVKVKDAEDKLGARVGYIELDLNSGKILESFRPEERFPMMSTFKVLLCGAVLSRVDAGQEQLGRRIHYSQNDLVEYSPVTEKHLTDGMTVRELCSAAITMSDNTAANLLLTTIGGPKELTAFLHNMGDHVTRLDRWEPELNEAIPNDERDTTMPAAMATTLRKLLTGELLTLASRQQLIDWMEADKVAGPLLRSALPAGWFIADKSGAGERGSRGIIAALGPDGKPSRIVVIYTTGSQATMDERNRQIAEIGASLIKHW
# Sequence of NS3 (A3EZJ3 whole entry, the tested form may be a part): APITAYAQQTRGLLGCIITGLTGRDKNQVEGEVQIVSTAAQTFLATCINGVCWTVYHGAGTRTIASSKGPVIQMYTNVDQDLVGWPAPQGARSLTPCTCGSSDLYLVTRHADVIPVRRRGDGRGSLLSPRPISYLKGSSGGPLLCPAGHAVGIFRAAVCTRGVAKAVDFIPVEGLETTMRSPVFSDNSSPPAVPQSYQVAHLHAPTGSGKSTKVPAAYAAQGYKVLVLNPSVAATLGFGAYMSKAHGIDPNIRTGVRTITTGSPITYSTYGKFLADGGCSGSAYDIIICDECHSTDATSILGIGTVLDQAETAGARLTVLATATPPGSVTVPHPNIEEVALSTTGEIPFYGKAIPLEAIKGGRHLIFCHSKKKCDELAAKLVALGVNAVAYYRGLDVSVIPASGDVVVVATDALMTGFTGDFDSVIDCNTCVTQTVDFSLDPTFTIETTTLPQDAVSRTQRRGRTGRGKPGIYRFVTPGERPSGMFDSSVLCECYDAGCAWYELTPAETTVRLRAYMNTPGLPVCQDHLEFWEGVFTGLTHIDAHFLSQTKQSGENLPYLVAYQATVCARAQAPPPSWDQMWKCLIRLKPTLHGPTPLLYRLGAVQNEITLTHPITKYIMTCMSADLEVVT
compound,measurement,setting,value
Cc1ccc(CSC2=Nc3ccccc3C3=NC(=O)CN23)cc1,AC50,[1],2.02 µM (active)
Cc1ccc(C2(O)C[N+](c3ccccc3C)=C3SCCN32)cc1 (centres undefined),EC50,[2],> 350 µM (not active)
same,EC50,[3],2.83 µM (active)
same,EC50,[4],> 92.5 µM (inactive)
same,EC50,[5],0.376 µM (active)
same,EC50,[6],> 92.5 µM (inactive)
same,EC50,[7],> 350 µM (not active)
COc1ccc2c(c1)oc(=O)c1cc(OC)ccc12,AC50,[8],46.8 µM (active)
COC[C@H]1OC(=O)c2coc3c2[C@@]1(C)C1=C(C3=O)[C@@H]2CCC(=O)[C@@]2(C)C[C@H]1OC(C)=O [WORTMANNIN],AC50,[9],0.363 µM (active)
same,EC50,[10],> 99 µM (inactive)
same,EC50,[11],> 99 µM (inactive)
COc1ccc(C)cc1S(=O)(=O)N(CC(=O)NC1CCCC1)c1ccc(F)cc1,AC50,[12],37.2 µM (active)
c1ccc2cc(C3CCCCC3)ncc2c1,AC50,[8],36.7 µM (active)
COc1c(N2CCN(C(S)=NCc3ccccc3)C(C)C2)c(F)cc2c(=O)c(C(=O)O)cn(C3CC3)c12 (centres undefined),IC50,[13],5.55 µM (active)
same,IC50,[14],14.9 µM (not active)
same,AC50,[1],27.8 µM (active)
COc1ccc(CNCCc2c[nH]c3ccccc23)c(OC)c1C,EC50,[3],59.5 µM (inactive)
same,EC50,[4],> 92.5 µM (inactive)
same,EC50,[5],0.841 µM (active)
same,EC50,[6],78.4 µM (inactive)
same,AC50,[15],7.75 µM (active)
same,AC50,[16],14.3 µM (active)
same,AC50,[17],2.44 µM (active)
same,AC50,[18],24.9 µM (active)
same,AC50,[19],5.48 µM (active)
Nc1c(C(=O)Nc2ccccc2F)sc2nc(-c3cccnc3)ccc12,IC50,[20],14 µM (inactive)
same,IC50,[21],21.7 µM (inactive)
CN(C)[C@@H]1C(=O)C(C(N)=O)=C(O)[C@@]2(O)C(O)=C3C(=O)c4c(O)cccc4[C@@](C)(O)C3C[C@@H]12 (some centres undefined),AC50,[22],19.9 µM (active)
same,EC50,[23],0.099 µM (active)
same,EC50,[24],0.098 µM (active)
same,AC50,[12],1.17 µM (active)
same,CC50,[25],> 40 µM (active)
CC(=O)c1ccc(NC(=O)CCC(=O)OCC(=O)c2cccc([N+](=O)[O-])c2)cc1,EC50,[26],> 40 µM (inactive)
same,IC50,[27],34.5 µM (not active)
CC(=O)Oc1ccc2c(c1)OC(c1ccccc1)CC21CC(C)(C)N=C(S)N1 (centres undefined),AC50,[22],31.7 µM (active)
Cc1cccc(NC(=O)c2ccc(NCCc3ccccc3)c([N+](=O)[O-])c2)c1,EC50,[10],> 99 µM (inactive)
same,EC50,[11],17.9 µM (active)
Cc1c(C)c2c(OCC(=O)NCc3ccncc3)cc3c(c2oc1=O)CCC(C)(C)O3,AC50,[28],0.759 µM (active)
same,AC50,[29],5.4 µM (active)
